Consider 26 molecules from patent US20240182445A1 (ONO PHARMACEUTICAL CO., LTD., priority 2019, published 2024).

The target in one test is T1, human TREK-1 (Homo sapiens, UniProt O95069).
T1 construct: expressed in transfected cells
T1 sequence (O95069 1-426): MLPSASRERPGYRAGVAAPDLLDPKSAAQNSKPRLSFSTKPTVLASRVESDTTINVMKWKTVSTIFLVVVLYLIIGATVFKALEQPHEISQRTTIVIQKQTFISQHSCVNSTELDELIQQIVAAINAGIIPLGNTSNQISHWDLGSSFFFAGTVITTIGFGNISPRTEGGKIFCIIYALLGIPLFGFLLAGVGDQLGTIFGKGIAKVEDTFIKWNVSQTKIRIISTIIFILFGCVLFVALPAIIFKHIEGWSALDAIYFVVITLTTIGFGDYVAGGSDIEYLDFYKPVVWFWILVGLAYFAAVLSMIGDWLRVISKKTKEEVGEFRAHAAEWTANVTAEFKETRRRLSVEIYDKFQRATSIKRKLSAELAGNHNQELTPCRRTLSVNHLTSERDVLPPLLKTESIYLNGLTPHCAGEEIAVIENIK
The test can be described thus: TREK-1 Thallium (Tl+) flux assay, Method 1. It counts as cell-based. Particulars: TREK-1 Thallium (Tl+) flux assay, Method 1. The protocol:
The term “thallium flux assay” herein refers to a fluorescence-based assay used to monitor the activity of TREK channels. Thallium is a congener of potassium that readily fluxes through the pore of TREK channels. Thallium flux is measured using a commercially available, thallium-sensitive fluorescent dye called Thallos. The detail method is described below.
CHO-K1 cells stably expressing human TREK-1 were plated in 384-well plates, cultured overnight, loaded with Thallos dye the following day. Test compounds or control compound (tert-butyl (3-((4-(benzyloxy)-2-methylphenyl)carbamoyl)-4-chlorophenyl)carbamate) or 0.3% DMSO (vehicle control) which were prepared on separate plates were added to the cell plates and incubated for 10 min, and then the cells were treated with thallium stimulus buffer to initiate thallium flux. To measure the efficacy and potency of test compounds, the change in fluorescence intensity (ΔRatio) and % inhibition were calculated using the following equations:
ΔRatio=(fluorescence intensity at 25 seconds after thallium addition)/(average of fluorescent intensity before thallium addition)
In general, IC50 refers to the concentration needed to halve the response being measured. Read a high IC50 as weaker potency. `CC(=O)N[C@H]1CC[C@@H](n2ncc(Cl)c2C(=O)Nc2ccc(OCc3ccccc3)cc2C)CC1` [Compound 399, 1-(cis-4-acetamidocyclohexyl)-N-(4-(benzyloxy)-2-methylphenyl)-4-chloro-1H-pyrazole-5-carboxamide] yielded an IC50 of 1.76 µM.

`CCc1cc(-c2cnc(NC(=O)c3c(Cl)cnn3C3CCN(C(=O)OC(C)(C)C)CC3)c(C)c2)ccc1OC` [Compound 408, tert-butyl 4-(4-chloro-5-((5-(3-ethyl-4-methoxyphenyl)-3-methylpyridin-2-yl)carbamoyl)-1H-pyrazol-1-yl)piperidine-1-carboxylate] returned an IC50 of 2.67 µM.

Consider `Cc1cc(-c2cnn(-c3ccc(F)cc3)c2)cnc1NC(=O)c1c(Cl)cnn1[C@H]1CCOC1` [Compound 395, (S)-4-chloro-N-(5-(1-(4-fluorophenyl)-1H-pyrazol-4-yl)-3-methylpyridin-2-yl)-1-(tetrahydrofuran-3-yl)-1H-pyrazole-5-carboxamide], for which the IC50 amounted to 1.42 µM.

Still in this test, the particulars now being: TREK-1 Thallium (Tl+) flux assay; no *^12 (Method 2) mark on these rows.
`CC(=O)N1CCC(C(C)n2ncc(Cl)c2C(=O)Nc2ncc(C#Cc3ccccc3)cc2C)CC1` (single isomer, unassigned) [Compound 197, 1-[(1R)-1-(1-acetylpiperidin-4-yl)ethyl]-4-chloro-N-[3-methyl-5-(phenylethynyl)pyridin-2-yl]-1H-pyrazole-5-carboxamide or 1-[(1S)-1-(1-acetylpiperidin-4-yl)ethyl]-4-chloro-N-[3-methyl-5-(phenylethynyl)pyridin-2-yl]-1H-pyrazole-5-carboxamide] gave an IC50 of 0.3 µM.

Take `Cc1cc(C#Cc2ccccc2)cnc1NC(=O)c1c(Cl)cnn1C1CCOC1` (centres unmarked) [Compound 306, 4-chloro-N-(3-methyl-5-(phenylethynyl)pyridin-2-yl)-1-(tetrahydrofuran-3-yl)-1H-pyrazole-5-carboxamide]: the IC50 turned out to be 0.58 µM.

`O=C(Nc1ncc(C#Cc2ccccc2)cc1Cl)c1c(Cl)cnn1C[C@H]1COCCO1` [Compound 361, (S)-1-((1,4-dioxan-2-yl)methyl)-4-chloro-N-(3-chloro-5-(phenylethynyl)pyridin-2-yl)-1H-pyrazole-5-carboxamide]: the IC50 was 0.91 µM.

`Cc1cc(C#Cc2cccc(F)c2)cnc1NC(=O)c1c(Cl)cnn1C[C@H]1COCCO1` [Compound 286, (S)-1-((1,4-dioxan-2-yl)methyl)-4-chloro-N-(5-((3-fluorophenyl)ethynyl)-3-methylpyridin-2-yl)-1H-pyrazole-5-carboxamide] gave an IC50 of 0.5 µM.

`Cc1cc(C#Cc2ccccc2)cnc1NC(=O)c1c(Cl)cnn1C[C@H]1CCCN(C(=O)C(C)C)C1` [Compound 263] displayed a concentration for half-maximal inhibition (IC50) of 0.43 µM.

`Cc1cc(C#Cc2cccc(F)c2)cnc1NC(=O)c1c(Cl)cnn1[C@H]1CCOC1` [Compound 333, (S)-4-chloro-N-(5-((3-fluorophenyl)ethynyl)-3-methylpyridin-2-yl)-1-(tetrahydrofuran-3-yl)-1H-pyrazole-5-carboxamide] showed an IC50 of 0.67 µM.

`Cc1cc(C#Cc2ccccc2)cnc1NC(=O)c1c(Cl)cnn1CC1(F)CCN(C(=O)C(C)C)CC1` [Compound 236, 4-chloro-1-((4-fluoro-1-isobutyrylpiperidin-4-yl)methyl)-N-(3-methyl-5-(phenylethynyl)pyridin-2-yl)-1H-pyrazole-5-carboxamide] displayed an IC50 of 0.36 µM.

Turning to `COCCn1ncc(Cl)c1C(=O)Nc1ncc(C#Cc2ccccc2)cc1C` [Compound 369, 4-chloro-1-(2-methoxyethyl)-N-(3-methyl-5-(phenylethynyl)pyridin-2-yl)-1H-pyrazole-5-carboxamide], the concentration for half-maximal inhibition (IC50) turned out to be 0.95 µM.

The molecule `Cc1cc(C#Cc2ccccc2)cnc1NC(=O)c1c(Cl)cnn1C1CC2(C1)CN(C(=O)OC(C)(C)C)C2` [Compound 330, tert-butyl 6-(4-chloro-5-((3-methyl-5-(phenylethynyl)pyridin-2-yl)carbamoyl)-1H-pyrazol-1-yl)-2-azaspiro[3.3]heptane-2-carboxylate] gave an IC50 of 0.65 µM.

For the molecule `CC(=O)N1CCC(F)(Cn2ncc(Cl)c2C(=O)Nc2ncc(C#Cc3ccccc3)cc2F)CC1` [Compound 228, 1-((1-acetyl-4-fluoropiperidin-4-yl)methyl)-4-chloro-N-(3-fluoro-5-(phenylethynyl)pyridin-2-yl)-1H-pyrazole-5-carboxamide], the IC50 turned out to be 0.35 µM.

Still in this test, the particulars now being: TREK-1 Thallium (Tl+) flux assay; values without footnote *12 are Method 1.
In the case of `Cc1cc(C#Cc2ccccc2)cnc1NC(=O)c1c(Cl)cnn1C1CCN(C(=O)C(C)C)CC1` [Compound 169], inhibition was half-maximal at 0.27 µM (IC50).

`CCC(=O)N1CCC(n2ncc(Cl)c2C(=O)Nc2ncc(C#Cc3ccccc3)cc2C)CC1` [Compound 41, 4-chloro-N-(3-methyl-5-(phenylethynyl)pyridin-2-yl)-1-(1-propionylpiperidin-4-yl)-1H-pyrazole-5-carboxamide]: the IC50 came out at 0.13 µM.

Regarding `CC(=O)N1CCC(n2ncc(Cl)c2C(=O)Nc2ncc(C#Cc3ccc(F)cc3)cc2C)CC1C` (centres unmarked) [Compound 62, 1-(1-acetyl-2-methylpiperidin-4-yl)-4-chloro-N-(5-((4-fluorophenyl)ethynyl)-3-methylpyridin-2-yl)-1H-pyrazole-5-carboxamide], the IC50 was 0.15 µM.

Consider `CC(=O)N1CC[C@@H](n2ncc(Cl)c2C(=O)Nc2ncc(C#Cc3ccccc3)cc2C)[C@H](F)C1` [Compound 30, […]], for which the IC50 amounted to 0.1 µM.

In turn, `Cc1cc(C#Cc2ccccc2)cnc1NC(=O)c1c(Cl)cnn1[C@H]1C[C@H](NC(=O)C(C)C)C1` [Compound 183, 4-chloro-1-(trans-3-isobutyramidocyclobutyl)-N-(3-methyl-5-(phenylethynyl)pyridin-2-yl)-1H-pyrazole-5-carboxamide] showed an IC50 of 0.28 µM.

Consider `Cc1cc(C#Cc2ccccc2)cnc1NC(=O)c1c(Cl)cnn1CCCC#N` [Compound 167, 4-chloro-1-(3-cyanopropyl)-N-(3-methyl-5-(phenylethynyl)pyridin-2-yl)-1H-pyrazole-5-carboxamide], for which it took 0.27 µM to reach half-maximal inhibition (IC50).

With `Cc1cc(C#Cc2ccccc2)cnc1NC(=O)c1c(Cl)cnn1CC1(C)CCN(C(=O)C2CC2C)CC1` (centres unmarked) [Compound 184, 4-chloro-1-((4-methyl-1-(2-methylcyclopropane-1-carbonyl)piperidin-4-yl)methyl)-N-(3-methyl-5-(phenylethynyl)pyridin-2-yl)-1H-pyrazole-5-carboxamide], inhibition was half-maximal at 0.28 µM (IC50).

In turn, `Cc1cc(C#Cc2ccccc2)cnc1NC(=O)c1c(Cl)cnn1C[C@@H]1CCN(C(=O)C(C)C)C[C@@H]1F` [Compound 118, 4-chloro-1-(((3R,4S)-3-fluoro-1-isobutyrylpiperidin-4-yl)methyl)-N-(3-methyl-5-(phenylethynyl)pyridin-2-yl)-1H-pyrazole-5-carboxamide] showed a 50% inhibitory concentration (IC50) of 0.2 µM.

`Cc1cc(C#Cc2ccc(F)cc2)cnc1NC(=O)c1c(Cl)cnn1CCN1CCN(C(=O)C2CC2)CC1` [Compound 96, 4-chloro-1-(2-(4-(cyclopropanecarbonyl)piperazin-1-yl)ethyl)-N-(5-((4-fluorophenyl)ethynyl)-3-methylpyridin-2-yl)-1H-pyrazole-5-carboxamide] came in with an IC50 of 0.18 µM.

The molecule `Cc1cc(C#Cc2cccs2)cnc1NC(=O)c1c(Cl)cnn1CC1CCN(C(=O)C2COCCO2)CC1` (centres unmarked) [Compound 103, 1-((1-(1,4-dioxane-2-carbonyl)piperidin-4-yl)methyl)-4-chloro-N-(3-methyl-5-(thiophen-2-ylethynyl)pyridin-2-yl)-1H-pyrazole-5-carboxamide] displayed an IC50 of 0.19 µM.

For `Cc1cc(C#Cc2ccccc2)cnc1NC(=O)c1c(Cl)cnn1[C@H]1CC[C@H](NC(=O)C(C)C)CC1` [Compound 191, 4-chloro-1-(trans-4-isobutyramidocyclohexyl)-N-(3-methyl-5-(phenylethynyl)pyridin-2-yl)-1H-pyrazole-5-carboxamide], the IC50 is 0.29 µM.

Consider `Cc1cc(C#Cc2ccc(F)cc2)cnc1NC(=O)c1c(Cl)cnn1[C@H]1CC[C@@H](NC(=O)C(C)C)CC1` [Compound 125, 4-chloro-N-(5-((4-fluorophenyl)ethynyl)-3-methylpyridin-2-yl)-1-(cis-4-isobutyramidocyclohexyl)-1H-pyrazole-5-carboxamide], for which the IC50 stood at 0.21 µM.

In turn, `Cc1cc(C#Cc2ccc(F)cc2)cnc1NC(=O)c1c(Cl)cnn1[C@H]1CC[C@@H](NC(=O)C2COCCO2)CC1` (stereo partly drawn) [Compound 38, 1-(cis-4-(1,4-dioxane-2-carboxamido)cyclohexyl)-4-chloro-N-(5-((4-fluorophenyl)ethynyl)-3-methylpyridin-2-yl)-1H-pyrazole-5-carboxamide] yielded a concentration for half-maximal inhibition (IC50) of 0.12 µM.
